Assay results from US8993514B1 (The Florida State University Research Foundation, Inc., priority 2011, dated 2015).
Values joined by “and” are separate entries in the source; they are usually repeats but may differ in a detail not shown here. Equal entries are not always repeated. Where two headings read alike, the source gives them in different places.

Assays:
[1] = format: binding; settings: for hemin binding indicated by decrease of fluorescence intensity as hemin is added: pH 7.4; for estimated number of hemin molecules bound to the respective peptide: 25° C.
[2] = format: binding; settings: 1% DMSO
[3] = tested on: brain edema after traumatic brain injury; settings: in vivo, 8 mg/kg
[4] = tested on: cultured neurons and astrocytes; settings: cited from earlier work

Substance	hemin binding indicated by decrease of fluorescence intensity as hemin is added [1]	estimated number of hemin molecules bound to the respective peptide ([1]; pH = 5.0)	estimated number of hemin molecules bound to the respective peptide ([1]; pH = 7.4)	hemin binding indicated by SPR response increasing with hemin concentration [2]	% water content of brain tissue from impacted region, individual rat [3]	% water content of brain tissue from impacted region, average ([3]; rat) [%]	effect on brain swelling ([3]; rat)	hemin concentration sufficient to kill 60%-70% of cultured neurons and astrocytes [4] [µM]
GQPHGGGWGQPHGGGWGQPHGGGWGQPHGGGWGQGGG (Synthetically generated peptide) [SEQ ID NO: 6, 4-repeat peptide of the octarepeat region with additional flanking residues]	hemin forms a chemical bond	4.0	2.0	hemin binds to the respective peptide	–	–	–	–
PHGGGWGQPHGGGWGQ [SEQ ID NO: 3]	hemin forms a chemical bond	–	–	–	80.93% and 77.24% and 80.98%	79.72	reduced the brain swelling	–
hemin	–	–	–	–	–	–	–	3 to 30
